Measurements from patent US10369149B2, “4-(2-amino-tetrahydronaphthalenyl)pyrimidine derivative, preparation method therefor, and pharmaceutical composition for preventing or treating cancer, containing same as active ingredient” (KOREA RESEARCH INSTITUTE OF CHEMICAL TECHNOLOGY, priority 2015, dated 2019).
Like-named read-outs stand apart in the source and are kept apart here.

How the values were obtained:
[1] = tested on: H3122, the non-small cell lung cancer cell line; experiment: ALK inhibitory activity in H3122, SRB staining of live cells; format: cell-based; conditions: Homo sapiens
Procedure: […] One day later, the compound of the present invention was added to each well at different concentrations of 10 μM, 2 μM, 0.4 μM, 0.08 μM, […], and 0.00032 μM. DMSO (dimethylsulfoxide) was added to the well that was not loaded with the compound by the same amount as the compound. Three days after the addition of the compound, DMEM was eliminated. 10% TCA (trichloroacetic acid) was added to fix the cells. The wells were washed with running water three times and the live cells were stained with SRB solution (1× sulphorodamine B). Then, OD was measured to calculate the population of the live cells. IC50 of the experimental compound used in the experiment above was calculated by using prism software (Version 5.01, Graphpad).
Table 2 presents the ALK inhibitory activity of the compounds of the examples of the present invention in H3122 containing ALK enzyme.

Ba/F3 EML4-ALK L1196M = Ba/F3 EML4-ALK L1196M (Homo sapiens, UniProt Q9UM73, L1196M, cells depend on it); experiment: ALK inhibitory activity in Ba/F3 EML4-ALK L1196M, SRB staining of live cells; conditions: read-out: Ba/F3 EML4-ALK L1196M, three days
Procedure: Particularly, 4,000 ALK L1196M cells containing ALK enzyme were distributed in each well of a 96 well plate together with 100 μl of DMEM (Dulbecco's Modified Eagle's Medium). […] DMSO (dimethylsulfoxide) was added to the well that was not loaded with the compound by the same amount as the compound. Three days after the addition of the compound, DMEM was eliminated. 10% TCA (trichloroacetic acid) was added to fix the cells. The wells were washed with running water three times and the live cells were stained with SRB solution (1× sulphorodamine B). Then, OD was measured to calculate the population of the live cells.

ALK enzyme = ALK enzyme (Homo sapiens, UniProt Q9UM73); experiment: Anaplastic lymphoma kinase (ALK) inhibitory activity, HTRF kinase assay; format: biochemical
[2] = tested on: human non-small cell lung cancer cell line H3122; experiment: In vivo xenograft evaluation for H3122 induced lung cancer; parameters: species or system nude mice (BALB/c nu/nu, female); conditions: H3122 xenograft s.c. in nude mice, oral, q.d.×14, FIGS. 1 and 2
Source text: The nude mice (BALB/c nu/nu, female) used in this experiment were purchased from Charles River Japan, Inc. and raised and tested under SPF (Specific Pathogen Free) control. The human non-small cell lung cancer cell line H3122 maintained by Korea Research Institute of Chemical Technology was used in this experiment. The female nude mice adapted to the laboratory were implanted with cancer. Particularly, H3122 cells grown to the appropriate size for passage were cut into 3×3×3 mm^3, which was transplanted (s.c.) under the right side of the nude mouse. […] For the control, 20% PEG 400+3% Tween 80 in DDW was orally administered. For the experimental group (7 mice/group), the compound was dissolved in the same solvent of the control, which was orally administered 14 times in total (q.d.×14). The size of the cancer was measured every 2˜3 days after the administration using a caliper and the diameters (long diameter (a), short diameter (b)) of the cancer were measured. The size of the cancer (volume, V) was calculated according to mathematical formula 1. Volume (mm^3)=a×b^2/2 [Mathematical Formula 1] FIG. 1 is a graph showing the results of observing the size of cancer in the control group (CONTROL), the LDK378-treated group, and the group treated with the compound of example 14 over the time. […]

[3] = tested on: ALK L1196M cells containing ALK enzyme; experiment: ALK inhibitory activity in ALK L1196M cells, SRB staining of live cells; format: cell-based
Procedure: DMSO (dimethylsulfoxide) was added to the well that was not loaded with the compound by the same amount as the compound. Three days after the addition of the compound, DMEM was eliminated. 10% TCA (trichloroacetic acid) was added to fix the cells. The wells were washed with running water three times and the live cells were stained with SRB solution (1× sulphorodamine B). Then, OD was measured to calculate the population of the live cells. IC50 of the experimental compound used in the experiment above was calculated by using prism software (Version 5.01, Graphpad). […] Table 2 presents the ALK inhibitory activity of the compounds of the examples of the present invention in ALK L1196M containing ALK enzyme.

[4] = NCI-H3122, 72 h, three days, SRB, read-out: Non-small cell lung cancer cell line H3122
[5] = NCI-H3122, read-out: ALK inhibitory activity in H3122 containing ALK enzyme at the concentration range
[6] = read-out: anaplastic lymphoma kinase (ALK) inhibitory activity at the concentration
[7] = 72 h, ALK L1196M cells, three days, SRB, read-out: ALK L1196M
[8] = ALK L1196M cells, read-out: ALK inhibitory activity in ALK L1196M containing ALK enzyme at the concentration

Chain of ALK enzyme (Q9UM73 19-1620): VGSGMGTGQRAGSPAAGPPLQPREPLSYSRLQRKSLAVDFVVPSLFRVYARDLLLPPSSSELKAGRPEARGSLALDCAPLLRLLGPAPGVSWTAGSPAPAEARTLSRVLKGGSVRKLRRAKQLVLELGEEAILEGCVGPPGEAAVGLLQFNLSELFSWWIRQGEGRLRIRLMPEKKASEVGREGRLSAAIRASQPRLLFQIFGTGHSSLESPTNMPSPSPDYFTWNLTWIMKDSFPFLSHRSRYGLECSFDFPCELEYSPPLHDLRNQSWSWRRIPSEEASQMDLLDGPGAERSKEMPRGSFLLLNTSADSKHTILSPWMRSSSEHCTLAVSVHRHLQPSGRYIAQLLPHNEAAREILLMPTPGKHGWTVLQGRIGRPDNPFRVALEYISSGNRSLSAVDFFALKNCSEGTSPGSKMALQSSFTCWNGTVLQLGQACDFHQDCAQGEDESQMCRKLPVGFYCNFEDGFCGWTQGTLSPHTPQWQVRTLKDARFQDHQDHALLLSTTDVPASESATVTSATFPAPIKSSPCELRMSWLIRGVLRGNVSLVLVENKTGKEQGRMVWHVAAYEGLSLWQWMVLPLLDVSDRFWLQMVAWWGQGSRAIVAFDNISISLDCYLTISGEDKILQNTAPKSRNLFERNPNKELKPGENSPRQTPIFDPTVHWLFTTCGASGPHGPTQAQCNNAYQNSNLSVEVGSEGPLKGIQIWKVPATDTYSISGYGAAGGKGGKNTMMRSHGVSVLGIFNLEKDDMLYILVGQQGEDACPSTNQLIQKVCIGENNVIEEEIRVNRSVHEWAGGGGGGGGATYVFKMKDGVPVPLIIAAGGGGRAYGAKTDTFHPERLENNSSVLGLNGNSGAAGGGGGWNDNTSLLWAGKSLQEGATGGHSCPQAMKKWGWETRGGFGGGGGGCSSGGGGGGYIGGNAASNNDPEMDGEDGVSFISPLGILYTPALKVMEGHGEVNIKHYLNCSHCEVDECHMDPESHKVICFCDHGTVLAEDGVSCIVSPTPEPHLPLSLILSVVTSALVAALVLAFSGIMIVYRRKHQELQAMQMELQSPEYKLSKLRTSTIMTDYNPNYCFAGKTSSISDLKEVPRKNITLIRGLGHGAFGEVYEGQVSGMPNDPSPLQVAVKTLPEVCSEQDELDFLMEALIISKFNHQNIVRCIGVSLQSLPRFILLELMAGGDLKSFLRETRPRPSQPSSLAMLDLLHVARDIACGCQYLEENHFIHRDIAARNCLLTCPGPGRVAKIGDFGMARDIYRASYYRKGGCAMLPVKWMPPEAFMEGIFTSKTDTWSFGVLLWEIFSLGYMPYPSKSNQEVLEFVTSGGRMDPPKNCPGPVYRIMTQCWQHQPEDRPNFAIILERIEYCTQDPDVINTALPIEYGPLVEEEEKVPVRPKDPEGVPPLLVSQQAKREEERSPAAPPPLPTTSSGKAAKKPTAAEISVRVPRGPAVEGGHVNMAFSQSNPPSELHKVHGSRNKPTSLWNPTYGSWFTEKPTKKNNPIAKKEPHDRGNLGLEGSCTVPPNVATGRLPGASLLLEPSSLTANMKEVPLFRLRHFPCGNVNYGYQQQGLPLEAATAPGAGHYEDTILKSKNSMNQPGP
Chain of Ba/F3 EML4-ALK L1196M (Q9UM73 whole entry L1196M): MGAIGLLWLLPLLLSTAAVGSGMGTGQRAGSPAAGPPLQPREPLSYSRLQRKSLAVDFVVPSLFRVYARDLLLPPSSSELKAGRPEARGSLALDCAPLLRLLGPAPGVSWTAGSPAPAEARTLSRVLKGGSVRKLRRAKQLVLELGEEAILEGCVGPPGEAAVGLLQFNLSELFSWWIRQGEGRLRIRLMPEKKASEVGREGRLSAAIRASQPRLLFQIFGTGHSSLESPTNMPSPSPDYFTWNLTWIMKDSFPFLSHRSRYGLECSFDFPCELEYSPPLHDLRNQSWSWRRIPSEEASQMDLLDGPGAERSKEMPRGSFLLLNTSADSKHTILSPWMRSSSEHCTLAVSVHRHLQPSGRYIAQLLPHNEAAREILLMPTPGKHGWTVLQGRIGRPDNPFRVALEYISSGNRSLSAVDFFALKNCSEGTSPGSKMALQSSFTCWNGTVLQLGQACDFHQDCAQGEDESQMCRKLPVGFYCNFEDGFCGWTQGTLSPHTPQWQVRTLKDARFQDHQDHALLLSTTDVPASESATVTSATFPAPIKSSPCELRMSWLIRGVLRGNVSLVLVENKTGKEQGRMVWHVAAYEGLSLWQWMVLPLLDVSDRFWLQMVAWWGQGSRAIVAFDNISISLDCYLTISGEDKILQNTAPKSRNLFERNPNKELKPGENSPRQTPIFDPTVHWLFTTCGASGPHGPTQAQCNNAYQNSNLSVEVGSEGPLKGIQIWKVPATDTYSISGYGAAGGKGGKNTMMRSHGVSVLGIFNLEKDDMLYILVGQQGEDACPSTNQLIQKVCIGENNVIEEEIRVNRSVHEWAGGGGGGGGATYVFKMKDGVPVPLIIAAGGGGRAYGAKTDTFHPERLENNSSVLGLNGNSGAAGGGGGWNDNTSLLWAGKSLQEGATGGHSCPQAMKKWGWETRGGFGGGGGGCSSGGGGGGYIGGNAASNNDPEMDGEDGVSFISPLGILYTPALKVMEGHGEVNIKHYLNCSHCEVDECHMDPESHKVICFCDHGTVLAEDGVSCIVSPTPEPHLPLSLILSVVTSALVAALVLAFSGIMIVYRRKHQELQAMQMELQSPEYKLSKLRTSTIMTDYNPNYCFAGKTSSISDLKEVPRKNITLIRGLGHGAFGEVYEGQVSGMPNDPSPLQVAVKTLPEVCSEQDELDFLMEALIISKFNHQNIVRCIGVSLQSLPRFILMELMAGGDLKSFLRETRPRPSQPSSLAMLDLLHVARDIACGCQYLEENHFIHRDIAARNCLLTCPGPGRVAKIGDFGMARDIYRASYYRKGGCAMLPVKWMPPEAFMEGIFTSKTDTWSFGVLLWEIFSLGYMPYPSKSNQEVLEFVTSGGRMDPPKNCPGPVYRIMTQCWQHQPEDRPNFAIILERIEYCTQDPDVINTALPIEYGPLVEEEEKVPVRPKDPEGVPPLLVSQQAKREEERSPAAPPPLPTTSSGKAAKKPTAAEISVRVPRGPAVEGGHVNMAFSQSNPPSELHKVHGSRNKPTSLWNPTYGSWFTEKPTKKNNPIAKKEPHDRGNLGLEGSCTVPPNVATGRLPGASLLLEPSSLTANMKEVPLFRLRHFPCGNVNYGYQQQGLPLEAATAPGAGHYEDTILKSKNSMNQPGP

Row | Structure (SMILES) | IC50 [1, 4] [nM] | IC50 [1, 5] [nM] | GI50 (Ba/F3 EML4-ALK L1196M) [nM] | IC50 (ALK enzyme; HTRF, read-out: ALK) [nM] | IC50 (ALK enzyme; [6]) [nM] | effect of inhibiting cancer size [2] | IC50 [3, 7] [nM] | IC50 [3, 8] [nM] | IC50 ([3]; 72 h, read-out: ALK L1196M) [nM]
1 | COc1cc2c(cc1Nc1ncc(Cl)c(Nc3ccccc3S(=O)(=O)C(C)C)n1)C(C)(C)/C(=N/N1CCN(C)CC1)CC2 [Example 19, (E)-5-chloro-N4-(2-(isopropylsulfonyl)phenyl)-N2-(3-methoxy-8,8-dimethyl-7-(4-methylpiperazine-1-ylimino)-5,6,7,8-tetrahydronaphthalene-2-yl)pyrimidine-2,4-diamine] | > 100 | – | > 100 | 10 to 100 | – | – | > 100 | – | –
2 | COc1cc2c(cc1Nc1ncc(Cl)c(Nc3ccccc3S(=O)(=O)C(C)C)n1)C(C)(C)/C(=N/NC(C)=O)CC2 [Example 20, (E)-N-(7-(5-chloro-4-(2-(isopropylsulfonyl)phenylamino)pyrimidine-2-ylamino)-6-methoxy-1,1-dimethyl-3,4-dihydronaphthalene-2(1H)-yladene)acetohydrazide] | > 100 | – | > 100 | 10 to 100 | – | – | > 100 | – | –
3 | COc1cc2c(cc1Nc1ncc(Cl)c(Nc3ccccc3S(=O)(=O)C(C)C)n1)C(C)(C)/C(=N/NC(N)=O)CC2 [Example 21, (E)-2-(7-(5-chloro-4-(2-(isopropylsulfonyl)phenylamino)pyrimidine-2-ylamino)-6-methoxy-1,1-dimethyl-3,4-dihydronaphthalene-2(1H)-yladene)hydragencarboxamide] | > 100 | – | > 100 | < 10 | ≤ 10 | – | 10 to 100 | – | –
4 | COc1cc2c(cc1Nc1ncc(Cl)c(Nc3ccccc3S(=O)(=O)C(C)C)n1)C(C)(C)C(N)CC2 (stereo not drawn) [Example 23, N2-(7-amino-3-methoxy-8,8-dimethyl-5,6,7,8-tetrahydronaphthalene-2-yl)-5-chloro-N4-(2-(isopropylsulfonyl)phenyl)pyrimidine-2,4-diamine] | > 100 | – | > 100 | 10 to 100 | – | – | – | – | 10 to 100
5 | COc1cc2c(cc1Nc1ncc(Cl)c(Nc3ccccc3S(=O)(=O)C(C)C)n1)C(C)(C)C(O)CC2 (stereo not drawn) [Example 25, 7-(5-chloro-4-(2-(isopropylsulfonyl)phenylamino)pyrimidine-2-ylamino)-6-methoxy-1,1-dimethyl-1,2,3,4-tetrahydronaphthalene-2-ol] | > 100 | – | > 100 | 10 to 100 | – | – | 10 to 100 | – | –
6 | COc1cc2c(cc1Nc1ncc(Cl)c(Nc3ccccc3S(=O)(=O)C(C)C)n1)CCC(NC(=O)CN(C)C)C2(C)C (stereo not drawn) [Example 27, N-(6-(5-chloro-4-(2-(isopropylsulfonyl)phenylamino)pyrimidine-2-ylamino)-7-methoxy-1,1-dimethyl-1,2,3,4-tetrahydronaphthalene-2-yl)-2-(dimethylamino)acetamide] | 10 to 100 | 10 to 100 | 10 to 100 | < 10 | ≤ 10 | – | < 10 | ≤ 10 | –
7 | COc1cc2c(cc1Nc1ncc(Cl)c(Nc3ccccc3S(=O)(=O)C(C)C)n1)CCC(N(C)C)C2(C)C (stereo not drawn) [Example 28, 5-chloro-N2-(6-(dimethylamino)-3-methoxy-5,5-dimethyl-5,6,7,8-tetrahydronaphthalene-2-yl)-N4-(2-(isopropylsulfonyl)phenyl)pyrimidine-2,4-diamine] | 10 to 100 | 10 to 100 | 10 to 100 | < 10 | ≤ 10 | – | < 10 | ≤ 10 | –

Second part, led by results:

Row | IC50 [1, 4] [nM] | IC50 [1, 5] [nM] | GI50 (Ba/F3 EML4-ALK L1196M) [nM] | IC50 (ALK enzyme; HTRF, read-out: ALK) [nM] | IC50 (ALK enzyme; [6]) [nM] | Structure (SMILES) | effect of inhibiting cancer size [2] | IC50 [3, 7] [nM] | IC50 [3, 8] [nM] | IC50 ([3]; 72 h, read-out: ALK L1196M) [nM]
8 | 10 to 100 | 10 to 100 | 10 to 100 | < 10 | ≤ 10 | COc1cc2c(cc1Nc1ncc(Cl)c(Nc3ccccc3S(=O)(=O)C(C)C)n1)CC/C(=N\N1CCN(C)CC1)C2(C)C [Example 14, (E)-5-chloro-N4-(2-(isopropylsulfonyl)phenyl)-N2-(3-methoxy-5,5-dimethyl-6-(4-methylpiperazine-1-ylimino)-5,6,7,8-tetrahydronaphthalene-2-yl)pyrimidine-2,4-diamine] | excellent, similar to LDK378 | < 10 | ≤ 10 | –
9 | 10 to 100 | 10 to 100 | 10 to 100 | < 10 | ≤ 10 | COc1cc2c(cc1Nc1ncc(Cl)c(Nc3ccccc3S(=O)(=O)C(C)C)n1)CCC(N)C2(C)C (stereo not drawn) [Example 22, N2-(6-amino-3-methoxy-5,5-dimethyl-5,6,7,8-tetrahydronaphthalene-2-yl)-5-chloro-N4-(2-(isopropylsulfonyl)phenyl)pyrimidine-2,4-diamine] | excellent, similar to LDK378 | < 10 | ≤ 10 | –
10 | 10 to 100 | 10 to 100 | > 100 | 10 to 100 | – | COc1cc2c(cc1Nc1ncc(Cl)c(Nc3ccccc3S(=O)(=O)C(C)C)n1)CCC(O)C2(C)C (stereo not drawn) [Example 24, 6-(5-chloro-4-(2-(isopropylsulfonyl)phenylamino)pyrimidine-2-ylamino)-7-methoxy-1,1-dimethyl-1,2,3,4-tetrahydronaphthalene-2-ol] | – | 10 to 100 | – | –
11 | 10 to 100 | 10 to 100 | 10 to 100 | < 10 | ≤ 10 | COc1cc2c(cc1Nc1ncc(Cl)c(Nc3ccccc3S(=O)(=O)C(C)C)n1)CCC(NC(=O)CO)C2(C)C (stereo not drawn) [Example 26, N-(6-(5-chloro-4-(2-(isopropylsulfonyl)phenylamino)pyrimidine-2-ylamino)-7-methoxy-1,1-dimethyl-1,2,3,4-tetrahydronaphthalene-2-yl)-2-hydroxyacetamide] | – | < 10 | ≤ 10 | –
